Reference: US20030235916A1, “Novel methods for the delivery of polynucleotides to cells” (priority 2002, published 2003)
Each block holds one compound with its values, some of them ahead of it. d = 2'-deoxy (DNA); r = 2'-OH (RNA)

Columns and labels:
[1] = tested on: rhodamine labeled PCILuc DNA (pDNA); assay: Rhodamine labeled DNA condensation with cationic surfactants (fluorescence quenching), Example 19; format: physicochemical
Method: (§1) PCILuc DNA (pDNA) [Zhang et al. 1997] was modified to a level of 1 rhodamine per 100 bases using Mirus' Label IT® Rhodamine kit (Rhodamine Containing DNA Labeling Reagent, Mirus Corporation). The modified pDNA (10 μg) was mixed with pDNA that was not labeled (90 μg) in water and diluted to a final concentration of 1 μg/μL with water. The modified pDNA/pDNA mixture (5 μg) was diluted with water to a final volume of 500 μL. Different amounts of CTAB were added to the solution and the fluorescence intensity of the solution was measured using a Cary Eclipse Fluorescence Spectrophotometer (ex=555, em=585, Varian, Inc.). Trubetskoy et al have shown that rhodamine labeled pDNA undergoes fluorescence quenching as the pDNA is condensed [Trubetskoy, 1999].
as §1, with “It®” for “IT®”, “dodecylamine hydrochloride” for “CTAB”

[2] = tested on: luciferase expression (pCI Luc / pCI Ren) in liver of ICR mice; assay: HP tail vein dual luciferase: siRNA delivery (Example 77); format: in vivo; conditions: hydrophobic siRNA
Method: HP Tail Vein Dual Luciferase: siRNA delivery Five complexes were prepared as follows:
Tail vein injections of 1.0 mL per 10 g body weight (˜2.5 ml) were preformed on ICR mice (n=2) using a 30 gauge, 0.5 inch needle. Injections were done manually with injection times of 4-5 sec [Zhang et al. 1999; Liu et al. 1999]. One day after injection, the livers were harvested and homogenized in lysis buffer (0.1% Triton X-100, 0.1 M K-phosphate, 1 mM DTT, pH 7.8). Insoluble material was cleared by centrifugation and 10 μl of the cellular extract or extract diluted 10× was analyzed for luciferase activity as previously reported [Wolffetal 1990].

Compound: CCCCCCCCCCCCCCCC[N+](C)(C)C.[Br-] [CTAB, cetyltrimethylammonium bromide, reference compound]
surfactant concentration at which the pDNA is condensed ([1]; 5 μg rhodamine pDNA mixture in 500 μL water): 0.33 mM | Fluor Int ([1]; N/P 0.4, 2 μg CTAB, 0.011 mM CTAB, 5 μg pDNA in 500 μL water, ex=555, em=585): 201.540 | Fluor Int ([1]; N/P 0.7, 4 μg CTAB, 0.022 mM CTAB): 159.277 | Fluor Int ([1]; N/P 1.1, 6 μg CTAB, 0.033 mM CTAB): 85.253 | Fluor Int ([1]; N/P 1.4, 8 μg CTAB, 0.044 mM CTAB): 81.625 | Fluor Int ([1]; N/P 1.8, 10 μg CTAB, 0.055 mM CTAB): 78.471 | Fluor Int ([1]; N/P 2.2, 12 μg CTAB, 0.066 mM CTAB): 74.722 | Fluor Int ([1]; N/P 2.5, 14 μg CTAB, 0.077 mM CTAB): 67.267 | Fluor Int ([1]; N/P 2.9, 16 μg CTAB, 0.088 mM CTAB): 62.799

Fluor Int ([1]; N/P 0.6, 2 μg NC12, 0.018 mM NC12, 5 μg pDNA in 500 μL water, ex=555, em=585): 183.656 | Fluor Int ([1]; N/P 1.2, 4 μg NC12, 0.036 mM NC12): 106.095 | Fluor Int ([1]; N/P 1.8, 6 μg NC12, 0.054 mM NC12): 95.586 | Fluor Int ([1]; N/P 2.4, 8 μg NC12, 0.072 mM NC12): 86.119 | Fluor Int ([1]; N/P 3.0, 10 μg NC12, 0.090 mM NC12): 77.670 | Fluor Int ([1]; N/P 3.6, 12 μg NC12, 0.108 mM NC12): 68.208 | Fluor Int ([1]; N/P 4.2, 14 μg NC12, 0.126 mM NC12): 62.115 | Fluor Int ([1]; N/P 4.8, 16 μg NC12, 0.144 mM NC12): 60.158 | Fluor Int ([1]; N/P 5.4, 18 μg NC12, 0.162 mM NC12): 53.467 | Fluor Int ([1]; N/P 6.0, 20 μg NC12, 0.180 mM NC12): 46.790 | Fluor Int ([1]; N/P 6.5, 22 μg NC12, 0.198 mM NC12): 43.375 | Fluor Int ([1]; N/P 7.1, 24 μg NC12, 0.216 mM NC12): 45.000
Compound: CCCCCCCCCCCCN.Cl [NC12, dodecylamine hydrochloride]

Compound: GL3-153: siRNA duplex, SEQ ID 12 and its compliment SEQ ID 13, Dharmacon (sense CUUACGCUGAGUACUUCGATT; antisense UCGAAGUACUCAGCGUAAGTT; sugars from the 5' end r19 d2, backbone not given here; listed as Photinus pyralis)
inhibition of luciferase expression [2]: inhibits luciferase expression
